Earlier results as cited in patent US5750504A, “Antimicrobial proteins” (Zeneca Agrochemicals, priority 1996, dated 1998).
Where no end group is shown, it is not given here.

Columns and labels:
[1] = test system: fungi; settings: Rs-AFP-type proteins of WO93/05153; cited from earlier work
[2] = test system: hyphae of Fusarium culmorum; settings: Terras FRG et al, 1992; cited from earlier work

Substance	hyperbranching of fungi [1]	hyper-branching of hyphae of Fusarium culmorum [2]
Cb-AMP1: antimicrobial protein capable of isolation from Cnicus benedictus, SEQ ID NO 6 (ELCEKASKTWSGNCGNTKHCDDQCKSWEGAAHGACHVRNGKHMCFCYFNC; ends and bridges not checked; cysteine pairing not given here)	do not	
Dm-AMP1: antimicrobial protein capable of isolation from Dahlia merckii, SEQ ID NO 5 (ELCEKASKTWSGNCGNTGHCDNQCKSWEGAAHGACHVRNGKHMCFCYFNC; ends and bridges not checked; cysteine pairing not given here)	do not	
Rs-AFP1: antifungal protein from Raphanus sativus seeds, SEQ ID NO 3 (ZKLCERPSGTWSGVCGNNNACKNQCINLEKARHGSCNYVFPAHKCICYFPC)	cause hyperbranching	A similar effect
Rs-AFP2: antifungal protein from Raphanus sativus seeds, SEQ ID NO 4 (ZKLCQRPSGTWSGVCGNNNACKNQCIRLEKARHGSCNYVFPAHKCICYFPC)	cause hyperbranching	A similar effect
